Values quoted from earlier work as cited in publication PMC4716540 (British Journal of Cancer, 2015).

Test system: haematological and solid tumours
Settings: early clinical trials; ref Zhou et al, 2012; cited from earlier work

| Structure (SMILES) | Visual disorders (blurred vision, flashes, delayed light/dark accommodation, photophobia) |
| --- | --- |
| CC1(C)CC(=O)c2c(C(F)(F)F)nn(-c3ccc(C(N)=O)c(N[C@H]4CC[C@H](OC(=O)CN)CC4)c3)c2C1 [SNX-5422] | associated with visual disorders |
| CO[C@H]1/C=C\C=C(/C)C(=O)NC2=CC(=O)C(NCCN(C)C)=C(C[C@@H](C)C[C@H](OC)[C@H](O)[C@@H](C)/C=C(\C)[C@@H]1OC(N)=O)C2=O [alvespimycin] | associated with visual disorders |
